Assay: Metabolic stability in pooled rat liver microsomes
Settings: for CLint scaled at 0.5 µM: pH 7.4, Clint
Method: Buffer solutions were prepared as follows: • a. Buffer A: 0.1 M monobasic potassium phosphate buffer containing 1.0 mM EDTA. • b. Buffer B: 0.1 M dibasic potassium phosphate buffer containing 1.0 mM EDTA. • c. Buffer C: 0.1 M potassium phosphate buffer containing 1.0 mM EDTA was adjusted to pH 7.4 by titrating 700 mL of Buffer B with Buffer A while monitoring with a pH meter. • 2. An NADPH stock solution (6 mM) was prepared by dissolving NADPH into Buffer C. • 3. Spiking solutions were prepared for the reference compound (ketanserin) and the test compounds as follows: • a. A 500 μM spiking solution of the reference compound (ketanserin) was generated by adding 10 μL of a 10 mM stock solution of ketanserin in DMSO into 190 μL acetonitrile. A 1.5 μM spiking solution in microsomes (0.75 mg/mL) was generated by adding 1.5 μL of the 500 μM spiking solution and 18.75 μL of 20 mg/mL rat liver microsomes into 479.75 μL of Buffer C while cooling with ice. • b. […] A 0.75 μM spiking solution in microsomes (0.75 mg/mL) was generated by adding 1.5 μL of the 250 μM spiking solution and 18.75 μL of 20 mg/mL rat liver microsomes into 479.75 μL of Buffer C while cooling with ice. • 4. 30 μL of 1.5 μM spiking solution containing 0.75 mg/mL microsomes solution was dispensed into assay plates designated for different time points (0 min, 5 min, 15 min, 30 min, and 45 min; or 0 min, 15 min, 30 min, 45 min, and 60 min as shown in Tables 1-5 below) while cooling with ice. • 5. For the 0 min time point assay plate, 135 μL of ACN containing IS followed immediately by 15 μL of the 6 mM NADPH stock solution were added to the wells of the 0 min assay plate. • 6. All assay plates other than the 0 min assay plate were pre-incubated at 37° C. for 5 min, and then 15 μL of the 6 mM NADPH stock solution was added to the wells of the assay plates to start the reaction and timing. At the appropriate time (5 min, 15 min, 30 min, 45 min, or 60 min), 135 μL of ACN containing IS was added to the wells of the corresponding assay plates, respectively, to stop the reaction. • 7. After quenching, the plates were shaken in a vibrator (IKA, MTS 2/4) for 10 min (600 rpm/min) and then centrifuged at 5594 g for 15 min (Thermo Multifuge×3R). • 8. After centrifugation, 50 μL of the supernatant from each well was transferred into a 96-well sample plate containing 50 μL of ultrapure water (Millipore, ZMQS50F01) for LC/MS analysis.

[1] = rat liver microsomes, 0 min, Table 1 (Example 16)
[2] = rat liver microsomes, 0 min, Table 2 (Example 17)
[3] = rat liver microsomes, 0 min, Table 3 (Example 18)
[4] = rat liver microsomes, 0 min, Table 5 (Example 20)
[5] = rat liver microsomes, Table 2 (Example 17)
[6] = rat liver microsomes, 15 min, Table 1 (Example 16)
[7] = rat liver microsomes, 15 min, Table 2 (Example 17)
[8] = rat liver microsomes, 15 min, Table 3 (Example 18)
[9] = rat liver microsomes, 15 min, Table 5 (Example 20)
[10] = rat liver microsomes, 30 min, Table 1 (Example 16)
[11] = rat liver microsomes, 30 min, Table 2 (Example 17)
[12] = rat liver microsomes, 30 min, Table 3 (Example 18)
[13] = rat liver microsomes, 30 min, Table 5 (Example 20)
[14] = rat liver microsomes, 45 min, Table 1 (Example 16)
[15] = rat liver microsomes, 45 min, Table 2 (Example 17)
[16] = rat liver microsomes, 45 min, Table 3 (Example 18)
[17] = rat liver microsomes, 45 min, Table 5 (Example 20)
[18] = rat liver microsomes, Table 1 (Example 16)
[19] = rat liver microsomes, Table 3 (Example 18)
[20] = rat liver microsomes, Table 5 (Example 20)
[21] = rat, microsomes, 0 h, 0.5 µM, pH 7.4
[22] = rat, microsomes, 0.5 µM, pH 7.4
[23] = rat, microsomes, 0.25 h, 0.5 µM, pH 7.4
[24] = rat, microsomes, 0.5 h, 0.5 µM, pH 7.4
[25] = rat, microsomes, 0.75 h, 0.5 µM, pH 7.4
[26] = rat, microsomes, 1 h, 0.5 µM, pH 7.4

Structure (SMILES): NC(=O)c1cccc2cn(-c3ccc([C@@H]4CCCNC4)cc3)nc12 (racemic) [racemic niraparib]
- Percent Remaining (%) 0 min [1]: 100.00%
- Percent Remaining (%) 0 min [2]: 100%
- Percent Remaining (%) 0 min [3]: 100.00%
- Percent Remaining (%) 0 min [4]: 100.00%
- Percent Remaining (%) 5 min [5]: 116.67%
- Percent Remaining (%) 15 min [6]: 89.16%
- Percent Remaining (%) 15 min [7]: 95.83%
- Percent Remaining (%) 15 min [8]: 92.47%
- Percent Remaining (%) 15 min [9]: 77.23%
- Percent Remaining (%) 30 min [10]: 75.88%
- Percent Remaining (%) 30 min [11]: 83.18%
- Percent Remaining (%) 30 min [12]: 65.45%
- Percent Remaining (%) 30 min [13]: 65.45%
- Percent Remaining (%) 45 min [14]: 69.11%
- Percent Remaining (%) 45 min [15]: 81.48%
- Percent Remaining (%) 45 min [16]: 51.57%
- Percent Remaining (%) 45 min [17]: 53.43%
- Percent Remaining (%) 60 min (rat liver microsomes, 60 min, Table 1 (Example 16)): 60.43%
- Percent Remaining (%) 60 min (rat liver microsomes, 60 min, Table 3 (Example 18)): 50.17%
- Percent Remaining (%) 60 min (rat liver microsomes, 60 min, Table 5 (Example 20)): 42.23%
- Clint [18]: 30.15 mL/min/kg
- T1/2 [18]: 1.373 h
- Clint [5]: 24.43 mL/min/kg
- T1/2 [5]: 1.6945 h
- Clint [19]: 46.91 mL/min/kg
- T1/2 [19]: 0.8825 h
- Clint [20]: 50.00 mL/min/kg
- T1/2 [20]: 0.828 h

Structure (SMILES): [2H]C1NC([2H])C(c2ccc(-n3cc4cccc(C(N)=O)c4n3)cc2)C([2H])C1[2H] (centres unmarked) [Example 7, 2-(4-(piperidin-3-yl-2,4,5,6-d4)phenyl)-2H-indazole-7-carboxamide]
- Percent Remaining (%) 0 min [21]: 100%
- Percent Remaining (%) 5 min [22]: 112.62%
- Percent Remaining (%) 15 min [23]: 94.47%
- Percent Remaining (%) 30 min [24]: 84.9%
- Percent Remaining (%) 45 min [25]: 83.06%
- CLint scaled at 0.5 µM (rat, microsomes): 21.1 mL/min/kg
- half-life at 0.5 µM (rat, microsomes, pH 7.4, T1/2): 1.96 h

Structure (SMILES): [2H]c1c([2H])c(-n2cc3cccc(C(N)=O)c3n2)c([2H])c([2H])c1C1C([2H])NC([2H])C([2H])C1[2H] (centres unmarked) [Example 6]
- Percent Remaining (%) 0 min [21]: 100%
- Percent Remaining (%) 5 min [22]: 112%
- Percent Remaining (%) 15 min [23]: 100%
- Percent Remaining (%) 30 min [24]: 88.27%
- Percent Remaining (%) 45 min [25]: 85.02%
- CLint scaled at 0.5 µM (rat, microsomes): 18.8 mL/min/kg
- half-life at 0.5 µM (rat, microsomes, pH 7.4, T1/2): 2.2 h

Structure (SMILES): [2H]C1NC([2H])C([2H])(c2ccc(-n3cc4cccc(C(N)=O)c4n3)cc2)C([2H])C1[2H] (centres unmarked) [Example 5, 2-(4-(piperidin-3-yl-2,3,4,5,6-d5)phenyl)-2H-indazole-7-carboxamide]
- Percent Remaining (%) 0 min [21]: 100.00%
- Percent Remaining (%) 15 min [23]: 108.00%
- Percent Remaining (%) 30 min [24]: 89.02%
- Percent Remaining (%) 45 min [25]: 81.33%
- Percent Remaining (%) 60 min [26]: 80.31%
- CLint scaled at 0.5 µM (rat, microsomes): 17.2 mL/min/kg
- half-life at 0.5 µM (rat, microsomes, pH 7.4, T1/2): 2.4 h

Structure (SMILES): [2H]c1c([2H])c(-n2nc3c(C(N)=O)cccc3c2[2H])c([2H])c([2H])c1[C@@H]1CCCNC1 [Example 15, (S)-2-(4-(piperidin-3-yl)phenyl-2,3,5,6-d4)-2H-indazole-3-d-7-carboxamide]
- Percent Remaining (%) 0 min [21]: 100.00%
- Percent Remaining (%) 15 min [23]: 77.88%
- Percent Remaining (%) 30 min [24]: 67.35%
- Percent Remaining (%) 45 min [25]: 56.14%
- Percent Remaining (%) 60 min [26]: 44.60%
- CLint scaled at 0.5 µM (rat, microsomes): 46.4 mL/min/kg
- half-life at 0.5 µM (rat, microsomes, pH 7.4, T1/2): 0.892 h

Structure (SMILES): O=C(c1ccc(F)cc1)C1CCN(CCn2c(=O)[nH]c3ccccc3c2=O)CC1 [ketanserin]
- Percent Remaining (%) 0 min [1]: 100.00%
- Percent Remaining (%) 0 min [2]: 100%
- Percent Remaining (%) 0 min [3]: 100.00%
- Percent Remaining (%) 0 min (rat liver microsomes, 0 min, Table 4 (Example 19)): 100.00%
- Percent Remaining (%) 0 min [4]: 100.00%
- Percent Remaining (%) 5 min [18]: 65.84%
- Percent Remaining (%) 5 min [5]: 94.13%
- Percent Remaining (%) 5 min [19]: 78.33%
- Percent Remaining (%) 5 min (rat liver microsomes, Table 4 (Example 19)): 78.33%
- Percent Remaining (%) 5 min [20]: 82.83%
- Percent Remaining (%) 15 min [6]: 41.07%
- Percent Remaining (%) 15 min [7]: 61.07%
- Percent Remaining (%) 15 min [8]: 45.04%
- Percent Remaining (%) 15 min (rat liver microsomes, 15 min, Table 4 (Example 19)): 45.04%
- Percent Remaining (%) 15 min [9]: 51.29%
- Percent Remaining (%) 30 min [10]: 17.68%
- Percent Remaining (%) 30 min [11]: 32.18%
- Percent Remaining (%) 30 min [12]: 21.55%
- Percent Remaining (%) 30 min (rat liver microsomes, 30 min, Table 4 (Example 19)): 21.55%
- Percent Remaining (%) 30 min [13]: 25.82%
- Percent Remaining (%) 45 min [14]: 9.13%
- Percent Remaining (%) 45 min [15]: 21.24%
- Percent Remaining (%) 45 min [16]: 10.67%
- Percent Remaining (%) 45 min (rat liver microsomes, 45 min, Table 4 (Example 19)): 10.67%
- Percent Remaining (%) 45 min [17]: 15.08%
- CLint scaled at 0.5 µM (rat, pooled rat liver microsomes, rat liver microsomes, Table 1 (Example 16)): 188 mL/min/kg
- CLint scaled at 0.5 µM (rat, pooled rat liver microsomes, rat liver microsomes, Table 2 (Example 17)): 142 mL/min/kg
- CLint scaled at 0.5 µM (rat, pooled rat liver microsomes, rat liver microsomes, Table 3 (Example 18)): 179 mL/min/kg
- CLint scaled at 0.5 µM (rat, pooled rat liver microsomes, rat liver microsomes, Table 4 (Example 19)): 179 mL/min/kg
- CLint scaled at 0.5 µM (rat, pooled rat liver microsomes, rat liver microsomes, Table 5 (Example 20)): 154 mL/min/kg
- half-life at 0.5 µM (rat, pooled rat liver microsomes, pH 7.4, T1/2, rat liver microsomes, Table 1 (Example 16)): 0.22 h
- half-life at 0.5 µM (rat, pooled rat liver microsomes, pH 7.4, T1/2, rat liver microsomes, Table 2 (Example 17)): 0.292 h
- half-life at 0.5 µM (rat, pooled rat liver microsomes, pH 7.4, T1/2, rat liver microsomes, Table 3 (Example 18)): 0.231 h
- half-life at 0.5 µM (rat, pooled rat liver microsomes, pH 7.4, T1/2, rat liver microsomes, Table 4 (Example 19)): 0.231 h
- half-life at 0.5 µM (rat, pooled rat liver microsomes, pH 7.4, T1/2, rat liver microsomes, Table 5 (Example 20)): 0.269 h

Structure (SMILES): [2H]c1c([2H])c(C2([2H])C([2H])([2H])NC([2H])([2H])C([2H])([2H])C2([2H])[2H])c([2H])c([2H])c1-n1cc2cccc(C(N)=O)c2n1 (centres unmarked) [Example 2, 2-(4-(piperidin-3-yl-2,2,3,4,4,5,5,6,6-d9)phenyl-2,3,5,6-d4)-2H-indazole-7-carboxamide]
- Percent Remaining (%) 0 min [21]: 100.00%
- Percent Remaining (%) 15 min [23]: 93.04%
- Percent Remaining (%) 30 min [24]: 80.95%
- Percent Remaining (%) 45 min [25]: 75.60%
- Percent Remaining (%) 60 min [26]: 69.05%
- CLint scaled at 0.5 µM (rat, microsomes): 22.7 mL/min/kg
- half-life at 0.5 µM (rat, microsomes, pH 7.4, T1/2): 1.83 h

Structure (SMILES): [2H]c1c([2H])c(C2([2H])CCCNC2[2H])c([2H])c([2H])c1-n1cc2cccc(C(N)=O)c2n1 (centres unmarked) [Example 9, 2-(4-(piperidin-3-yl-2,3-d2)phenyl-2,3,5,6-d4)-2H-indazole-7-carboxamide]
- increase in rat liver microsome metabolic stability (rat, 0.5 µM, pH 7.4): 64%
- Percent Remaining (%) 0 min [21]: 100.00%
- Percent Remaining (%) 15 min [23]: 98.91%
- Percent Remaining (%) 30 min [24]: 83.70%
- Percent Remaining (%) 45 min [25]: 79.62%
- Percent Remaining (%) 60 min [26]: 75.27%
- CLint scaled at 0.5 µM (rat, microsomes): 18.8 mL/min/kg
- half-life at 0.5 µM (rat, microsomes, pH 7.4, T1/2): 2.21 h

Structure (SMILES): [2H]c1c([2H])c(-n2cc3cccc(C(N)=O)c3n2)c([2H])c([2H])c1C1CCCNC1 (centres unmarked) [Example 8, 2-(4-(piperidin-3-yl)phenyl-2,3,5,6-d4)-2H-indazole-7-carboxamide]
- Percent Remaining (%) 0 min [21]: 100.00%
- Percent Remaining (%) 15 min [23]: 91.49%
- Percent Remaining (%) 30 min [24]: 79.13%
- Percent Remaining (%) 45 min [25]: 80.74%
- Percent Remaining (%) 60 min [26]: 56.02%
- CLint scaled at 0.5 µM (rat, microsomes): 30.7 mL/min/kg
- half-life at 0.5 µM (rat, microsomes, pH 7.4, T1/2): 1.35 h
